Test system: production of TNF by monocytes activated with bacterial lipopolysaccharide (LPS)
Test: Lipopolysaccharide-activated monocyte TNF production assay
Assay type: cell-based
Details: Homo sapiens, read-out: IC50 values in the monocyte assay (LPS induced TNF release)
How it was run: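 Adherent human PBMC-derived monocytes (~70%) in DMEM/2% FCS were pre-incubated 60 min with nine two-fold compound dilutions, then stimulated with E. coli K532 LPS (added as 30 ng/ml solution) for 4 h at 37 °C. Supernatant TNF-α was measured by sandwich ELISA. IC50 was taken from a polynomial fit of TNF versus compound concentration.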

Row | Compound | IC50 [µM]
1 | COc1c(Cl)cccc1NC(=O)c1ccc(C)c(-c2ccc3nc(N)ncc3c2)c1 [Example 284, 3-(2-amino-6-quinazolinyl)-N-(5-chloro-8-(methyloxy)-phenyl)-4-methylbenzamide] | ≤ 25
2 | Cc1ccc(C(=O)Nc2cccc3nonc23)cc1-c1ccc2nc(N)ncc2c1 [Example 303, 3-(2-amino-6-quinazolinyl)-N-(2,1,3-benzoxadiazol-4-yl)-4-methylbenzamide] | ≤ 25
3 | Cc1ccc(C(=O)Nc2c3c(nn2CCC#N)CCC3)cc1-c1ccc2nc(N)ncc2c1 [Example 304, 3-(2-amino-6-quinazolinyl)-N-(2-(2-cyanoethyl)-2,4,5,6-tetrahydrocyclopenta [c]pyrazol-3-yl)-4-methylbenzamide] | ≤ 25
4 | Cc1ccc(C(=O)Nc2ccc(C(F)(F)F)cc2)cc1-c1ccc2nc(N(C)C)ncc2c1 [Example 319, 3-(2-(dimethylamino)-6-quinazolinyl)-4-methyl-N-(4-(trifluoromethyl)phenyl)benzamide] | ≤ 25
5 | Cc1cc(NC(=O)c2ccc(C)c(-c3ccc4nc(N)ncc4c3)c2)on1 [Example 323, 3-(2-amino-6-quinazolinyl)-4-methyl-N-(3-methyl-5-isoxazolyl)benzamide] | ≤ 25
6 | Cc1ccnc(NC(=O)c2ccc(C)c(-c3ccc4nc(N)ncc4c3)c2)c1 [Example 339, 3-(2-amino-6-quinazolinyl)-4-methyl-N-(4-methyl-2-pyridinyl)benzamide] | ≤ 25
7 | CCc1ccnc(NC(=O)c2ccc(C)c(-c3ccc4nc(N)ncc4c3)c2)c1 [Example 340, 3-(2-amino-6-quinazolinyl)-N-(4-ethyl-2-pyridinyl)-4-methylbenzamide] | ≤ 25
8 | Cc1csc(NC(=O)c2ccc(C)c(-c3ccc4nc(N)ncc4c3)c2)n1 [Example 341, 3-(2-amino-6-quinazolinyl)-4-methyl-N-(4-thiazol-2-yl)benzamide] | ≤ 25
9 | Cc1ccc(C(=O)Nc2nc3cc(Cl)ccc3o2)cc1-c1ccc2nc(N)ncc2c1 [Example 342, 3-(2-amino-6-quinazolinyl)-N-(5-chloro-1,3-benzoxazol-2-yl)-4-methylbenzamide] | ≤ 25
10 | Cc1ccc(C(=O)Nc2nnc(C(F)(F)F)s2)cc1-c1ccc2nc(N)ncc2c1 [Example 343, 3-(2-amino-6-quinazolinyl)-4-methyl-N-(5-(trifluoromethyl)-1,3,4-thiadiazol-2-yl)benzamide] | ≤ 25
11 | Cc1cc(NC(=O)c2ccc(C)c(-c3ccc4nc(N)ncc4c3)c2)ns1 [Example 344, 3-(2-amino-6-quinazolinyl)-4-methyl-N-(5-methyl-3-isothiazolyl) benzamide] | ≤ 25
12 | Cc1ccc(C(=O)Nc2cc(C(F)(F)F)ccn2)cc1-c1ccc2nc(N)ncc2c1 [Example 345, 3-(2-amino-6-quinazolinyl)-4-methyl-N-(4-(trifluoromethyl)-2-pyridinyl)benzamide] | ≤ 25
13 | Cc1ccc(C(=O)Nc2ncc(Cl)cc2Cl)cc1-c1ccc2nc(N)ncc2c1 [Example 346, 3-(2-amino-6-quinazolinyl)-N-(3,5-dichloro-2-pyridinyl)-4-methylbenzamide] | ≤ 25
14 | Cc1ccc(C(=O)Nc2nc(C(C)(C)C)cs2)cc1-c1ccc2nc(N)ncc2c1 [Example 352, 3-(2-amino-6-quinazolinyl)-N-(4-(1,1-dimethylethyl)-1,3-thiazol-2-yl)-4-methylbenzamide] | ≤ 25
15 | Cc1ccc(C(=O)Nc2ccc(I)cn2)cc1-c1ccc2nc(N)ncc2c1 [Example 353, 3-(2-amino-6-quinazolinyl)-N-(5-iodo-2-pyridinyl)-4-methylbenzamide] | ≤ 25
16 | CC(=O)c1sccc1NC(=O)c1ccc(C)c(-c2ccc3nc(N)ncc3c2)c1 [Example 355, N-(2-acetyl-3-thienyl)-3-(2-amino-6-quinazolinyl)-4-methylbenzamide] | ≤ 25
17 | Cc1ccc(C(=O)Nc2ncc(Br)s2)cc1-c1ccc2nc(N)ncc2c1 [Example 356, 3-(2-amino-6-quinazolinyl)-N-(5-bromo-1,3-thiazol-2-yl)-4-methylbenzamide] | ≤ 25
18 | Cc1ccc(C(=O)NCc2ccc(C(F)(F)F)nc2)cc1-c1ccc2nc(N)ncc2c1 [Example 357, 3-(2-amino-6-quinazolinyl)-4-methyl-N-((6-(trifluoromethyl)-3-pyridinyl)methyl) benzamide] | ≤ 25
19 | Cc1ccc(C(=O)Nc2ncccc2OCc2ccccc2)cc1-c1ccc2nc(N)ncc2c1 [Example 358, 3-(2-amino-6-quinazolinyl)-4-methyl-N-(3-((phenylmethyl)oxy)-2-pyridinyl)benzamide] | ≤ 25
20 | Cc1ccc(C(=O)Nc2cccc(C(F)(F)F)n2)cc1-c1ccc2nc(N)ncc2c1 [Example 359, 3-(2-amino-6-quinazolinyl)-4-methyl-N-(6-(trifluoromethyl)-2-pyridinyl)benzamide] | ≤ 25

Row | Compound | IC50 [µM]
21 | Cc1ccc(C(=O)Nc2ccc(C(F)(F)F)cn2)cc1-c1ccc2nc(N)ncc2c1 [Example 360, 3-(2-amino-6-quinazolinyl)-4-methyl-N-(5-(trifluoromethyl)-2-pyridinyl)benzamide] | ≤ 25
22 | Cc1ccc(C(=O)Nc2ncccc2O)cc1-c1ccc2nc(N)ncc2c1 [Example 361, 3-(2-amino-6-quinazolinyl)-N-(3-hydroxy-2-pyridinyl)-4-methylbenzamide] | ≤ 25
23 | Cc1ccc(C(=O)Nc2ncccc2OCCCN2CCCCC2)cc1-c1ccc2nc(N)ncc2c1 [Example 362, 3-(2-amino-6-quinazolinyl)-4-(methyl-N-(3-((3-1-piperidinyl)propyl)oxy)-2-pyridinyl)benzamide] | ≤ 25
24 | CCN(CC)CCOc1cccnc1NC(=O)c1ccc(C)c(-c2ccc3nc(N)ncc3c2)c1 [Example 363, 3-(2-amino-6-quinazolinyl)-N-(3-((2-(diethylamino)ethyl)oxy)-2-pyridinyl)-4-methylbenzamide] | ≤ 25
25 | Cc1ccc(C(F)(F)F)cc1NC(=O)c1ccc(C)c(-c2ccc3nc(N)ncc3c2)c1 [Example 365, 3-(2-amino-6-quinazolinyl)-4-methyl-N-(2-methyl-5-(trifluoromethyl)phenyl)benzamide] | ≤ 25
26 | Cc1ccc(C(=O)Nc2cccc(C(F)(F)F)c2C)cc1-c1ccc2nc(N)ncc2c1 [Example 369, 3-(2-amino-6-quinazolinyl)-4-methyl-N-(2-methyl-3-(trifluoromethyl)phenyl)benzamide] | ≤ 25
27 | CN1CC[C@@H](N(C)c2ccc(C(F)(F)F)cc2NC(=O)c2cc(-c3ccc4nc(N)ncc4c3)ccc2F)C1 [Example 419, 5-(2-amino-6-quinazolinyl)-2-fluoro-N-(2-(methyl((3R)-1-methyl-3-pyrrolidinyl)amino)-5-(trifluoromethyl)phenyl)benzamide] | ≤ 25
28 | Cc1ccc(C(=O)Nc2cc(C(F)(F)F)ccc2OCCN2CCCC2)cc1-c1ccc2nc(N)ncc2c1 [Example 420, 3-(2-amino-6-quinazolinyl)-4-methyl-N-(2-((2-(1-pyrrolidinyl)ethyl)oxy)-5-(trifluoromethyl)phenyl)benzamide] | ≤ 25
29 | CN1CCN(c2ccc(C(F)(F)F)cc2NC(=O)c2cc(-c3ccc4nc(N)ncc4c3)ccc2F)CC1 [Example 421, 5-(2-amino-6-quinazolinyl)-2-fluoro-N-(2-(4-methyl-1-piperazinyl)-5-(trifluoromethyl)phenyl)benzamide] | ≤ 25
30 | CN(C)[C@@H]1CCN(c2ccc(C(F)(F)F)cc2NC(=O)c2cc(-c3ccc4nc(N)ncc4c3)ccc2F)C1 [Example 422, 5-(2-amino-6-quinazolinyl)-N-(2-((3R)-3-(dimethylamino)-1-pyrrolidinyl)-5-(trifluoromethyl)phenyl)-2-fluorobenzamide] | ≤ 25
31 | Cc1ccc(C(=O)Oc2c(F)c(F)c(F)c(F)c2F)cc1-c1ccc2nc(N)ncc2c1 [Example 423, Perfluorophenyl-3-(2-aminoquinazolin-6-yl)-4-methylbenzoate] | ≤ 25
32 | Cc1ccc(C(=O)Nc2ccc(F)cc2F)cc1-c1ccc2nc(N)ncc2c1 [Example 424, 3-(2-amino-6-quinazolinyl)-N-(2,4-difluorophenyl)-4-methylbenzamide] | ≤ 25
33 | Cc1ccc(C(=O)NCc2ccncc2)cc1-c1ccc2nc(N)ncc2c1 [Example 425, 3-(2-amino-6-quinazolinyl)-4-methyl-N-(4-pyridinylmethyl) benzamide] | ≤ 25
34 | Cc1ccc(C(=O)NCc2ccccn2)cc1-c1ccc2nc(N)ncc2c1 [Example 426, 3-(2-amino-6-quinazolinyl)-4-methyl-N-(2-pyridinylmethyl) benzamide] | ≤ 25
35 | Cc1ccc(C(=O)NCCc2cccnc2)cc1-c1ccc2nc(N)ncc2c1 [Example 427, 3-(2-amino-6-quinazolinyl)-4-methyl-N-(2-(3-pyridinyl)ethyl)b enzamide] | ≤ 25
36 | Cc1ccc(C(=O)Nc2ccc(N3CCCC3)c(C(=O)N3CCCC3)c2F)cc1-c1ccc2nc(N)ncc2c1 [Example 428, 3-(2-amino-6-quinazolinyl)-N-(2-fluoro-4-(1-pyrrolidinyl)-3-(1-pyrrolidinylcarbonyl)phenyl)-4-methylbenzamide] | ≤ 25
37 | Cc1ccc(C(=O)Nc2cccc(C#N)c2)cc1-c1ccc2nc(N)ncc2c1 [Example 429, 3-(2-amino-6-quinazolinyl)-N-(3-cyanophenyl)-4-methylbenzamide] | ≤ 25
38 | Cc1ccc(NC(=O)c2cc(C(F)(F)F)ccc2C(F)(F)F)cc1-c1ccc2nc(N)ncc2c1 [Example 430, N-(3-(2-amino-6-quinazolinyl)-4-methylphenyl)-2,5-bis(trifluoromethyl)benzamide] | ≤ 25
39 | Cc1ccc(NC(=O)c2cc(C(F)(F)F)ccc2N(C)CCCN(C)C)cc1-c1ccc2nc(N)ncc2c1 [Example 431, N-(3-(2-amino-6-quinazolinyl)-4-methylphenyl)-2-((3-(dimethylamino)propyl)(methyl)amino)-5-(trifluoromethyl)benzamide] | ≤ 25

From patent publication US20070054916A1, “Aryl nitrogen-containing bicyclic compounds and methods of use” (Amgen Inc., priority 2004, published 2007)
